Measurements published in US9957263B2, “Bromodomain inhibitors” (AbbVie Inc., priority 2013, dated 2018).

Key:
BRD4 (BDI_K57-E168) = BRD4 (BDI_K57-E168) (Homo sapiens (Human), UniProt O60885); assay: TR-FRET bromodomain binding assay, BRD4 first bromodomain; details: His-tagged BD1, Alexa647-labeled probe 100 nM
Experimental: (§1) A time-resolved fluorescence resonance energy transfer (TR-FRET) assay was used to determine the affinities of compounds of the Examples listed in Table 1 for each bromodomain of BRD4. His-tagged first (BD1: amino acids K57-E168) and second (BD2: amino acids E352-E168) bromodomains of BRD4 were expressed and purified. An Alexa647-labeled BET-inhibitor was used as the fluorescent probe in the assay.
(§2) Compound dilution series were prepared in DMSO via a 3-fold serial dilution from 2.5 mM to 42 nM. Compounds were then diluted 6:100 in assay buffer (20 mM Sodium Phosphate, pH 6.0, 50 mM NaCl, 1 mM Ethylenediaminetetraacetic acid disodium salt dihydrate, 0.01% Triton X-100, 1 mM DL-Dithiothreitol) to yield 3× working solutions. Six microliters (μL) of the working solution was then transferred to white, low-volume assay plates (Costar #3673). A 1.5× assay mixture containing His-tagged bromodomain, Europium-conjugated anti-His antibody (Invitrogen PV5596) and the Alexa-647-conjugated probe molecule was also prepared. Twelve μL of this solution were added to the assay plate to reach a final volume of 18 μL. The final concentration of 1× assay buffer contains 2% DMSO, 50 μM-0.85 nM compound, 8 nM His-tagged bromodomain, 1 nM Europium-conjugated anti-His-tag antibody and 100 nM or 30 nM probe (for BDI or BDII, respectively). After a one-hour incubation at room temperature, TR-FRET ratios were determined using an Envision multilabel plate reader (Ex 340, Em […]).
(§3) TR-FRET data were normalized to the means of 24 no-compound controls (“high”) and 8 controls containing 1 μM un-labeled probe (“low”). Percent inhibition was plotted as a function of compound concentration and the data were fit with the 4 parameter logistic equation to obtain IC50s. Inhibition constants (Ki) were calculated from the IC50s, probe Kd and probe concentration. Typical Z′ values were between 0.65 and 0.75. The minimum significant ratio was determined to evaluate assay reproducibility (Eastwood et al., (2006) J Biomol Screen, 11: 253-261). The MSR was determined to be 2.03 for BDI and 1.93 for BDII, and a moving MSR (last six run MSR overtime) for both BDI and BDII was typically <3.

BRD4 (BDII_E352-M457) = BRD4 (BDII_E352-M457) (Homo sapiens (Human), UniProt O60885); assay: TR-FRET bromodomain binding assay, BRD4 second bromodomain; details: His-tagged BD2, Alexa647-labeled probe 30 nM
Experimental: as §1, §2, §3

| Compound | Ki (BRD4 (BDI_K57-E168)) | Ki (BRD4 (BDII_E352-M457)) |
| --- | --- | --- |
| Cc1cc(-c2ccc(-c3cn(C)c(=O)c4[nH]ccc34)c(OCC3CC3)c2)[nH]n1 [Example 1, 4-[2-(cyclopropylmethoxy)-4-(3-methyl-1H-pyrazol-5-yl)phenyl]-6-methyl-1,6-dihydro-7H-pyrrolo[2,3-c]pyridin-7-one] | 26 nM | 55 nM |
| CCS(=O)(=O)Nc1cc(-c2cn(C)c(=O)c3[nH]ccc23)c(Oc2ccc(F)cc2F)cc1CN1CCCCC1 [Example 3, N-[4-(2,4-difluorophenoxy)-5-(6-methyl-7-oxo-6,7-dihydro-1H-pyrrolo[2,3-c]pyridin-4-yl)-2-(piperidin-1-ylmethyl)phenyl]ethanesulfonamide] | 88 nM | 2.8 nM |
| CCS(=O)(=O)Nc1cc(-c2cn(C)c(=O)c3[nH]ccc23)c(Oc2ccc(F)cc2F)cc1CO [Example 6, N-[4-(2,4-difluorophenoxy)-2-(hydroxymethyl)-5-(6-methyl-7-oxo-6,7-dihydro-1H-pyrrolo[2,3-c]pyridin-4-yl)phenyl]ethanesulfonamide] | 14 nM | 2 nM |
| CCS(=O)(=O)Nc1cc(-c2cn(C)c(=O)c3[nH]ccc23)c(Oc2ccc(F)cc2F)cc1C(N)=O [Example 8, 5-(2,4-difluorophenoxy)-2-[(ethylsulfonyl)amino]-4-(6-methyl-7-oxo-6,7-dihydro-1H-pyrrolo[2,3-c]pyridin-4-yl)benzamide] | 1.5 nM | 1.8 nM |
| CCS(=O)(=O)Nc1cc(-c2cn(C)c(=O)c3[nH]ccc23)c(Oc2ccc(F)cc2F)cc1C(=O)NC1CCCC1 [Example 9, N-cyclopentyl-5-(2,4-difluorophenoxy)-2-[(ethylsulfonyl)amino]-4-(6-methyl-7-oxo-6,7-dihydro-1H-pyrrolo[2,3-c]pyridin-4-yl)benzamide] | 1.7 nM | 2 nM |
| CCS(=O)(=O)Nc1cc(-c2cn(C)c(=O)c3[nH]ccc23)c(Oc2ccc(F)cc2F)cc1C(=O)NC1CCOCC1 [Example 12, 5-(2,4-difluorophenoxy)-2-[(ethylsulfonyl)amino]-4-(6-methyl-7-oxo-6,7-dihydro-1H-pyrrolo[2,3-c]pyridin-4-yl)-N-(tetrahydro-2H-pyran-4-yl)benzamide] | 1.8 nM | 1.6 nM |
| CCS(=O)(=O)Nc1cc(-c2cn(C)c(=O)c3[nH]ccc23)c(Oc2ccc(F)cc2F)cc1CNCCO [Example 13, N-[4-(2,4-difluorophenoxy)-2-{[(2-hydroxyethyl)amino]methyl}-5-(6-methyl-7-oxo-6,7-dihydro-1H-pyrrolo[2,3-c]pyridin-4-yl)phenyl]ethanesulfonamide] | 42 nM | 7.4 nM |
| CCS(=O)(=O)Nc1cc(-c2cn(C)c(=O)c3[nH]ccc23)c(Oc2ccc(F)cc2F)cc1CN1CCCC1c1ccccc1 (centres unmarked) [Example 14, N-{4-(2,4-difluorophenoxy)-5-(6-methyl-7-oxo-6,7-dihydro-1H-pyrrolo[2,3-c]pyridin-4-yl)-2-[(2-phenylpyrrolidin-1-yl)methyl]phenyl}ethanesulfonamide] | 71 nM | 14 nM |
| CCS(=O)(=O)c1ccc(OCC2CC2(F)F)c(-c2cn(C)c(=O)c3[nH]c(CN4CCN(c5cnccn5)CC4)cc23)c1 (centres unmarked) [Example 18, 4-{2-[(2,2-difluorocyclopropyl)methoxy]-5-(ethylsulfonyl)phenyl}-6-methyl-2-{[4-(pyrazin-2-yl)piperazin-1-yl]methyl}-1,6-dihydro-7H-pyrrolo[2,3-c]pyridin-7-one] | 4.4 nM | 48 nM |
| CCS(=O)(=O)c1ccc(OCC2CC2(F)F)c(-c2cn(C)c(=O)c3[nH]c(CN4CCN(c5cccnc5)CC4)cc23)c1 (centres unmarked) [Example 20, 4-{2-[(2,2-difluorocyclopropyl)methoxy]-5-(ethylsulfonyl)phenyl}-6-methyl-2-{[4-(pyridin-3-yl)piperazin-1-yl]methyl}-1,6-dihydro-7H-pyrrolo[2,3-c]pyridin-7-one] | 4.9 nM | 48 nM |
| Cn1cc(-c2cc(S(C)(=O)=O)ccc2Oc2cccc(C(=O)NC3CC3)c2)c2cc[nH]c2c1=O [Example 21, N-cyclopropyl-3-[2-(6-methyl-7-oxo-6,7-dihydro-1H-pyrrolo[2,3-c]pyridin-4-yl)-4-(methylsulfonyl)phenoxy]benzamide] | 33 nM | 10 nM |
| Cn1cc(-c2cc(S(C)(=O)=O)ccc2Oc2cccc(C(=O)N3CCN(CCO)CC3)c2)c2cc[nH]c2c1=O [Example 26, 4-[2-(3-{[4-(2-hydroxyethyl)piperazin-1-yl]carbonyl}phenoxy)-5-(methylsulfonyl)phenyl]-6-methyl-1,6-dihydro-7H-pyrrolo[2,3-c]pyridin-7-one] | 27 nM | 15 nM |

The remaining compounds from weak to strong by Ki (BRD4 (BDI_K57-E168)), led by results:

| Ki (BRD4 (BDI_K57-E168)) | Ki (BRD4 (BDII_E352-M457)) | Compound |
| --- | --- | --- |
| 72 nM | 8.3 nM | CCS(=O)(=O)Nc1cc(-c2cn(C)c(=O)c3[nH]ccc23)c(Oc2ccc(F)cc2F)cc1C(=O)N(C)C [Example 10, 5-(2,4-difluorophenoxy)-2-[(ethylsulfonyl)amino]-N,N-dimethyl-4-(6-methyl-7-oxo-6,7-dihydro-1H-pyrrolo[2,3-c]pyridin-4-yl)benzamide] |
| 32 nM | 6.9 nM | CCS(=O)(=O)Nc1cc(-c2cn(C)c(=O)c3[nH]ccc23)c(Oc2ccc(F)cc2F)cc1CNC1CCCC1 [Example 7, N-{2-[(cyclopentylamino)methyl]-4-(2,4-difluorophenoxy)-5-(6-methyl-7-oxo-6,7-dihydro-1H-pyrrolo[2,3-c]pyridin-4-yl)phenyl}ethanesulfonamide] |
| 19 nM | 6.1 nM | Cn1cc(-c2cc(S(C)(=O)=O)ccc2Oc2cccc(C(=O)NC3CCCCC3)c2)c2cc[nH]c2c1=O [Example 25, N-cyclohexyl-3-[2-(6-methyl-7-oxo-6,7-dihydro-1H-pyrrolo[2,3-c]pyridin-4-yl)-4-(methylsulfonyl)phenoxy]benzamide] |
| 16 nM | 1.7 nM | CCS(=O)(=O)Nc1cc(-c2cn(C)c(=O)c3[nH]ccc23)c(Oc2ccc(F)cc2F)cc1CN1CCN(C)CC1 [Example 5, N-{4-(2,4-difluorophenoxy)-5-(6-methyl-7-oxo-6,7-dihydro-1H-pyrrolo[2,3-c]pyridin-4-yl)-2-[(4-methylpiperazin-1-yl)methyl]phenyl}ethanesulfonamide] |
| 15 nM | 12 nM | Cn1cc(-c2cc(S(C)(=O)=O)ccc2Oc2cccc(C(=O)N3CCC(N4CCCC4)CC3)c2)c2cc[nH]c2c1=O [Example 24, 6-methyl-4-[5-(methylsulfonyl)-2-(3-{[4-(pyrrolidin-1-yl)piperidin-1-yl]carbonyl}phenoxy)phenyl]-1,6-dihydro-7H-pyrrolo[2,3-c]pyridin-7-one] |
| 11 nM | 1.7 nM | CCS(=O)(=O)Nc1cc(-c2cn(C)c(=O)c3[nH]ccc23)c(Oc2ccc(F)cc2F)cc1CN1CCOCC1 [Example 4, N-[4-(2,4-difluorophenoxy)-5-(6-methyl-7-oxo-6,7-dihydro-1H-pyrrolo[2,3-c]pyridin-4-yl)-2-(morpholin-4-ylmethyl)phenyl]ethanesulfonamide] |
| 4.6 nM | 2.6 nM | CCS(=O)(=O)Nc1cc(-c2cn(C)c(=O)c3[nH]ccc23)c(Oc2ccc(F)cc2F)c(C2CC2)c1 [Example 15, N-[3-cyclopropyl-4-(2,4-difluorophenoxy)-5-(6-methyl-7-oxo-6,7-dihydro-1H-pyrrolo[2,3-c]pyridin-4-yl)phenyl]ethanesulfonamide] |
| 4.4 nM | 60 nM | CCS(=O)(=O)c1ccc(OCC2CC2(F)F)c(-c2cn(C)c(=O)c3[nH]c(CN4CCN(c5nccs5)CC4)cc23)c1 (centres unmarked) [Example 17, 4-{2-[(2,2-difluorocyclopropyl)methoxy]-5-(ethylsulfonyl)phenyl}-6-methyl-2-{[4-(1,3-thiazol-2-yl)piperazin-1-yl]methyl}-1,6-dihydro-7H-pyrrolo[2,3-c]pyridin-7-one] |
| 2.5 nM | 30 nM | CCS(=O)(=O)c1ccc(OCC2CC2(F)F)c(-c2cn(C)c(=O)c3[nH]c(CN4CCN(c5ccncc5)CC4)cc23)c1 (centres unmarked) [Example 16, 4-{2-[(2,2-difluorocyclopropyl)methoxy]-5-(ethylsulfonyl)phenyl}-6-methyl-2-{[4-(pyridin-4-yl)piperazin-1-yl]methyl}-1,6-dihydro-7H-pyrrolo[2,3-c]pyridin-7-one] |
| 0.8 nM | 1 nM | CCS(=O)(=O)Nc1cc(-c2cn(C)c(=O)c3[nH]ccc23)c(Oc2ccc(F)cc2F)cc1C(=O)O [Example 11, 5-(2,4-difluorophenoxy)-2-[(ethylsulfonyl)amino]-4-(6-methyl-7-oxo-6,7-dihydro-1H-pyrrolo[2,3-c]pyridin-4-yl)benzoic acid] |
